BindingDB's records for patent US20250026750 (Chia Tai Tianqing Pharmaceutical Group, 2025)

Molecular target: Serine/threonine-protein kinase ATR (Homo sapiens, UniProt Q13535)
Test: In Vitro Inhibitory Activity Against ATR Kinase
Protocol: A 50 ng/μL ATR stock solution was diluted with a kinase buffer (50 mM HEPES, 10 mM MgCl2, 2 mM DTT, 1 mM EGTA, 0.01% Tween 20), and 6 μL of 1.67×, 0.0835 ng/μL working solution was added to each well (final concentration: 0.05 ng/μL). Different compounds dissolved in DMSO were added to wells using a nanoliter pipettor, such that the final concentrations of the compounds were 1000 nM-0.24 nM and the concentrations in positive wells were 100 nM-0.024 nM (4-fold gradient, 7 concentrations in total). Meanwhile, a blank control well (containing no enzyme) and a negative control well (containing enzyme, with the vehicle DMSO added) were set. After the enzyme had reacted with the compound or vehicle for 30 min, a 5×, 50 μM ATP (final concentration: 10 μM) prepared with the kinase buffer and a 5×, 0.5 μM substrate (final concentration: 0.1 μM, U Light-poly GT) were 1:1 mixed, and the mixture was added to wells at 4 μL/well. After the plate was sealed with a sealing film and the plate was incubated at room temperature for 2 h, 5 μL of 4×, 40 mM EDTA (final concentration: 10 mM) was added to each well. After 5 min of incubation at room temperature, 5 μL of a 4×, 8 nM assay reagent (final concentration: 2 nM, Ep-anti-phospho-tyrosine antibody) was added to each well. The plate was incubated at room temperature for 1 h. Plate reading was performed on a PE instrument (excitation: 320 or 340 nm; emission: 665 nm), and four-parameter fitting and IC50 calculations were performed.

Serine/threonine-protein kinase ATR, sequence (Q13535 whole entry): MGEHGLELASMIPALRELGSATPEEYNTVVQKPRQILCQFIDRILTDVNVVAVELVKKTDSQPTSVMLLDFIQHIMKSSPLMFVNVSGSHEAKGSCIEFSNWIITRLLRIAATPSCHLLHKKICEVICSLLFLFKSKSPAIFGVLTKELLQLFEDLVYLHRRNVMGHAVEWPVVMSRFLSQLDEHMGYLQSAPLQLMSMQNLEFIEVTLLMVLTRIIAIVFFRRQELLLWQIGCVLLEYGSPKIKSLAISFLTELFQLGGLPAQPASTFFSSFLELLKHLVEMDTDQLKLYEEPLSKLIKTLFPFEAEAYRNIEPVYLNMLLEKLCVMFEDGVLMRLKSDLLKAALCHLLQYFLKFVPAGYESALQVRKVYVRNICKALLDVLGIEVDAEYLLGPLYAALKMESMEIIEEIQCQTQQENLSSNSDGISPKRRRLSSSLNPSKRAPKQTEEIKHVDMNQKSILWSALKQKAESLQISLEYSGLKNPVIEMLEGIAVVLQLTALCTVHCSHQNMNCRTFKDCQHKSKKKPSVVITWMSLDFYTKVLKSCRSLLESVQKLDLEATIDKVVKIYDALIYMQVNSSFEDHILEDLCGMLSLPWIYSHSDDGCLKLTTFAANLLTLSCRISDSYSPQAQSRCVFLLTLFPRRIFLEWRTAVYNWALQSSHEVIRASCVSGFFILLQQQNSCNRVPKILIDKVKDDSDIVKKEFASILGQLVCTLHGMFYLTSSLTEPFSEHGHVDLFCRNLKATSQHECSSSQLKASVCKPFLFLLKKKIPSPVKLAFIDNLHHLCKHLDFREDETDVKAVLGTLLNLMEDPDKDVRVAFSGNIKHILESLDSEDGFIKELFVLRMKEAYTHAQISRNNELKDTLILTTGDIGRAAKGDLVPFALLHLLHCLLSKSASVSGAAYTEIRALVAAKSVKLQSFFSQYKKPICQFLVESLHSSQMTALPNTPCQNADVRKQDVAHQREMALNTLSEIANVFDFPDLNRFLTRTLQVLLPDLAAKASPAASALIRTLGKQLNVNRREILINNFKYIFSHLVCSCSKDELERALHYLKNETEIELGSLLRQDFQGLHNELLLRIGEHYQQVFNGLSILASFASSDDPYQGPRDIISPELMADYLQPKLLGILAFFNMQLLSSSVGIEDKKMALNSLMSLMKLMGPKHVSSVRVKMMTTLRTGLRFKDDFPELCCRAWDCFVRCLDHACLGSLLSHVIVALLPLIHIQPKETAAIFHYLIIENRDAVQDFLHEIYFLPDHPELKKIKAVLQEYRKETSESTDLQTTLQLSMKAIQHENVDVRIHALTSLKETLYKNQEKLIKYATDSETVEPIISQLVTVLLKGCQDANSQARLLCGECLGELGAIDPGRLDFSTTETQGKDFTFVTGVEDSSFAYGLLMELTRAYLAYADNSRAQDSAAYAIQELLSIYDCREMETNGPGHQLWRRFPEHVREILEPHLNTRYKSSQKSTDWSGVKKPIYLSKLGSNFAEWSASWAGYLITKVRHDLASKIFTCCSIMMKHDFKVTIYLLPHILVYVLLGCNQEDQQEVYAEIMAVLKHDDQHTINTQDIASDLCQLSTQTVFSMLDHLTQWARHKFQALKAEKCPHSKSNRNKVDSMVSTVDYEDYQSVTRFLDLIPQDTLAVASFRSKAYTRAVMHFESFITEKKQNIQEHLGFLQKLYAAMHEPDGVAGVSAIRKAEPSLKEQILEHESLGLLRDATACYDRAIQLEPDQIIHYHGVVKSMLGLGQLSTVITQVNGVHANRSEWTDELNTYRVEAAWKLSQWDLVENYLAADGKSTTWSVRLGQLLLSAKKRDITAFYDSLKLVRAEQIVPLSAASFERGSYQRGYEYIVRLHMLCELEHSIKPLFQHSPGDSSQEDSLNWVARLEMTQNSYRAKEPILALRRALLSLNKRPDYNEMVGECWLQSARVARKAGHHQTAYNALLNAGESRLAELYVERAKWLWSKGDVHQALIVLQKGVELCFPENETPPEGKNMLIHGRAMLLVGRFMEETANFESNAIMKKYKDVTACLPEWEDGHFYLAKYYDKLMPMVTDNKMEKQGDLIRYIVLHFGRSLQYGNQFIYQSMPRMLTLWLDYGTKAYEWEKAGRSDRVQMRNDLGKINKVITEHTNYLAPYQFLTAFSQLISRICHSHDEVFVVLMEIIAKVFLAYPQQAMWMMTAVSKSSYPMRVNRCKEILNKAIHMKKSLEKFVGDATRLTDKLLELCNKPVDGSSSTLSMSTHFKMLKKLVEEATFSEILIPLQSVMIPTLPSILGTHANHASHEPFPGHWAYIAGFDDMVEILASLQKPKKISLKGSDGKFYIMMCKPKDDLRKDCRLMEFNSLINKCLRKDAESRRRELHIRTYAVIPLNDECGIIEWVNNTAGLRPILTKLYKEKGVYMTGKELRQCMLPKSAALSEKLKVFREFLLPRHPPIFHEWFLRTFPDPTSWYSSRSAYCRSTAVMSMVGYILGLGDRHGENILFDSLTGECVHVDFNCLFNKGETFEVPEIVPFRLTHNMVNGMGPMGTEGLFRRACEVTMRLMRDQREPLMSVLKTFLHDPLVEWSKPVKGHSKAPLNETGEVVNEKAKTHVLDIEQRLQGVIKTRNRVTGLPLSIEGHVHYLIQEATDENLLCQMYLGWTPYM

C[C@@H]1COCCN1c1cc(N=S(C)(C)=O)c2cnn(-c3ccn[nH]3)c2n1 [US20250026750, Compound 1]
IC50: < 0.05 µM

C[C@@H]1COCCN1c1cc(N=S2(=O)CCC2)c2cnn(-c3ccn[nH]3)c2n1 [US20250026750, Compound 3]
IC50: < 0.05 µM

C[C@@H]1COCCN1c1cc(N=S2(=O)CCCC2)c2cnn(-c3ccn[nH]3)c2n1 [US20250026750, Compound 4]
IC50: < 0.05 µM

C[C@@H]1COCCN1c1cc(N=S2(=O)CCOCC2)c2cnn(-c3ccn[nH]3)c2n1 [US20250026750, Compound 6]
IC50: < 0.05 µM

C[C@@H]1COCCN1c1cc(N=S(C)(=O)C(C)(C)C)c2cnn(-c3ccn[nH]3)c2n1 (some centres undefined) [US20250026750, Compound 17]
IC50: < 0.05 µM

Cc1nn(-c2ccn[nH]2)c2nc(N3CCOC[C@H]3C)cc(N=S(C)(C)=O)c12 [US20250026750, Compound 20]
IC50: < 0.05 µM

C[C@@H]1COCCN1c1cc(N=S(C)(C)=O)c2c(C(F)(F)F)nn(-c3ccn[nH]3)c2n1 [US20250026750, Compound 23]
IC50: < 0.05 µM

C[C@@H]1COCCN1c1cc(N=S(C)(C)=O)c2c(CCC(F)(F)F)nn(-c3ccn[nH]3)c2n1 [US20250026750, Compound 24]
IC50: < 0.05 µM

C[C@@H]1COCCN1c1cc(N=S(C)(C)=O)c2c(C(C)(C)C)nn(-c3cc[nH]n3)c2n1 [US20250026750, Compound 25]
IC50: < 0.05 µM
